Test results reported in EP0652217A1, “N-substituted imidazole derivatives” (MITSUBISHI CHEMICAL CORPORATION, priority 1993, dated 1995).

Key:
Format in all cases: in vivo
golden syrian hamsters = experiment: Anti-hyperlipemic activity: inhibition of serum total cholesterol increase in cholesterol-fed hamsters; conditions: hamsters on feed with 1 % cholesterol and 0.5 % cholic acid
Method: Six-week old golden syrian hamsters (4 to 5 animals/group) were used.
Untreated control group received normal solid feed (MF, Oriental Kobo Kogyo), while control and a drug-treated groups received feed containing 1 % cholesterol and 0.5 % cholic acid (manufactured by Oriental Kobo Kogyo) to induce […].
The test compound was suspended in 1.0 % Tween 80. The solvent or the test compound was started to be orally administered (10 ml/kg, once a day, for 5 days) as soon as feed was changed to cholesterol-containing feed. Alter final administration, blood was drawn from abdominal descendens main vein while anesthetized with nembutal. Serum was collected and total cholesterol (TC) in serum was determined according to enzymatic method using assay kit (Kyowa Medics).

KK-A^v mice = experiment: Activity to lower blood sugar (hypoglycaemic activity) in KK-A^v mice; conditions: serum
Method: Ten-week old KK-A^v mice (4 - 6 animals/group) were used.
The solvent (1 % Tween 80 solution) or a suspension of the test compound was orally administered once a day for 11 days (10 ml/kg).
Before administration and after the final administration, blood was drawn from caudal vein, and serum was collected and blood sugar level in serum was determined.
There was no difference between blood sugar levels before and after administration for control group. The test compound provided statistically significant decrease in blood sugar level for KK-A^v mice compared with the value before administration. The change in weight of test compound-treated group during oral administration was almost same as that of the control group.

[1] = test system: Spontaneously hypertensive rats (SHR); experiment: Antihypertensive activity: blood pressure lowering in SHR; conditions: oral, suspended in 1.0 % Tween 80
Method: Spontaneously hypertensive rats (SHR) were anesthetized with ether and polyethylene catheter for measurement of blood pressure was inserted in ventral aortas via caudal artery on the day before these experiments, and placed in separate cages and their tails were fixed. Under aparalytic conditions, blood pressure of semi-restrained rats was measured using a pressure transducer (TP-400T, manufactured by Nippon Koden). Heart rate was determined from pulse wave measured by a cardiotachometer (AT0691G, manufactured by Nippon Koden). On the test day, the test compounds were administered to rats after blood pressure and heart rate were confirmed to become sufficiently stable.
The test compounds were suspended in Tween 80 (1.0 % solution, 10 ml/kg) and orally administered to SHRs.

[2] = oral 30 mg/kg once a day for 5 days
[3] = oral 100 mg/kg once a day for 5 days

Compound	Inhibition of TC increase (golden syrian hamsters; [2])	Inhibition of TC increase (golden syrian hamsters; [3])	Maximum fall in blood pressure ([1]; dose 10 mg/kg)	also measured
c1cc(OCCCn2ccnc2)c2c(c1)OCO2 [Compound 1, 4-[3-(1-imidazolyl)propoxy]-1,3-benzodioxole]	80%	100%	–	Blood sugar level, After administration (KK-A^v mice; after oral 30 mg/kg once a day for 11 days, P < 0.05 vs value before administration): 532.2 ± 23.9; Blood sugar level, Before administration (KK-A^v mice; baseline before administration, 30 mg/kg group): 676.4 ± 33.7
N#Cc1ncn(CCCOc2cccc3c2OCO3)c1C#N [Compound 4, 4-[3-(4,5-dicyano-1-imidazolyl)propoxy]-1,3-benzodioxole]	–	–	-20 mmHg	–
Clc1ncn(CCCOc2cccc3c2OCO3)c1Cl [Compound 5, 4-[3-(4,5-dichloro-1-imidazolyl)propoxy]-1,3-benzodioxole]	–	–	-20 mmHg	–
c1cc(OCCCn2cnc3ccccc32)c2c(c1)OCO2 [Compound 6, 4-[3-(1-benzimidazolyl)propoxy]-1,3-benzodioxole]	–	–	-20 mmHg	–
c1cc(OCCCCn2ccnc2)c2c(c1)OCO2 [Compound 7, 4-[4-(1-imidazolyl)butoxy]-1,3-benzodioxole]	38%	–	-60 mmHg	–
c1cc(OCCCCCn2ccnc2)c2c(c1)OCO2 [Compound 8, 4-[5-(1-imidazolyl)pentoxy]-1,3-benzodioxole]	–	–	-25 mmHg	–
O=C(NCCCn1ccnc1)c1ccc2c(c1)OCO2 [Compound 13, N-[3-(1-imidazolyl)propyl]-3,4-methylenedioxybenzamide]	26%	60%	–	–
O=C(NCCCn1ccnc1)c1ccc2c(c1)OCCO2 [Compound 16, N-[3-(1-imidazolyl)propyl]-1,4-benzodioxane-6-carboxamide]	–	79%	–	Maximum fall in blood pressure ([1]; dose 30 mg/kg): -34.3 mmHg
